Measurements taken from patent US20240366589A1, “NHE3-BINDING COMPOUNDS AND METHODS FOR INHIBITING PHOSPHATE TRANSPORT” (Ardelyx, Inc., priority 2013, published 2024).
Like-named read-outs stand apart in the source and are kept apart here.

What was measured:
Human NHE3 = biological target: T1, Human NHE3 (Homo sapiens, UniProt P48764); assay: Cell-based NHE3 activity under prompt conditions (OK cells, BCECF pH recovery), human NHE3
T1 construct: expressed in transfected cells; host or cells: Opossum kidney (OK) cells (ATCC), electroporation
T1 sequence (P48764 26-834): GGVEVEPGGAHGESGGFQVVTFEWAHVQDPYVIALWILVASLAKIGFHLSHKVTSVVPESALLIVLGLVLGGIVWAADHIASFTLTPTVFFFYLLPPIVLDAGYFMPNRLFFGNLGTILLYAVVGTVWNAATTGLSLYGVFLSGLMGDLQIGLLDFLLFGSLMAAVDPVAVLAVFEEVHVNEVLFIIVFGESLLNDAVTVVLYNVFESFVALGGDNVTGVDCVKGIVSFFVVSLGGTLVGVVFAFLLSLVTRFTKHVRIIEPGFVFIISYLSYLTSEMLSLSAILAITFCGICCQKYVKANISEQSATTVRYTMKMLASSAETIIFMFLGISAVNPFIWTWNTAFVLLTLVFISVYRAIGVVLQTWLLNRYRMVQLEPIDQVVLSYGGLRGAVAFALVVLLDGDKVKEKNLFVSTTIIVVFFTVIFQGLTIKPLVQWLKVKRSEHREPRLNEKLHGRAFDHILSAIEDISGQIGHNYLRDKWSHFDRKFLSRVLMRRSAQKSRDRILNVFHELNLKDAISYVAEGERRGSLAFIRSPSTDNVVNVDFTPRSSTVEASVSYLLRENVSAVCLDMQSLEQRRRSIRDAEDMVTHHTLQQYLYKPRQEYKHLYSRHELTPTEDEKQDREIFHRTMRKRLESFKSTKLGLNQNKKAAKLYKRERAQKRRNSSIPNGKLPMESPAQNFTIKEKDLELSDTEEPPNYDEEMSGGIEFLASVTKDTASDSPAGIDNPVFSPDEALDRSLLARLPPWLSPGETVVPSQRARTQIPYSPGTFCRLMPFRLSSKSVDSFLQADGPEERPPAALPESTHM
Experimental: (§1) Cell-based activity under Prompt Conditions. Rat or human NHE3-mediated Na^+-dependent H antiport was measured using a modification of the pH sensitive dye method originally reported by Paradiso (PNAS USA. 81:7436-7440, 1984). Opossum kidney (OK) cells were obtained from the ATCC and propagated per their instructions. The rat NHE3 gene (GenBank M85300) or the human NHE3 gene (GenBank NM_004174.1) was introduced into OK cells via electroporation, and cells were seeded into 96 well plates and grown overnight. Medium was aspirated from the wells, cells were washed twice with NaCl-HEPES buffer (100 mM NaCl, 50 mM HEPES, 10 mM glucose, 5 mM KCl, 2 mM CaCl2, 1 mM MgCl2, pH 7.4), then incubated for 30 min at room temperature with NH4Cl-HEPES buffer (20 mM NH4Cl, 80 mM NaCl, 50 mM HEPES, 5 mM KCl, 2 mM CaCl2, 1 mM MgCl2, pH 7.4) containing 5 μM bis(acetoxymethyl) 3,3′-(3′,6′-bis(acetoxymethoxy)-5-((acetoxymethoxy)carbonyl)-3-oxo-3H-spiro[isobenzofuran-1,9′-xanthene]-2′,7′-diyl)dipropanoate (BCECF-AM).
(§2) Cells were washed twice with Ammonium free, Na^+-free HEPES (100 mM choline, 50 mM HEPES, 10 mM glucose, 5 mM KCl, 2 mM CaCl2, 1 mM MgCl2, pH 7.4) and incubated in the same buffer for 10 minutes at room temperature to lower intracellular pH. […] Initial rates were plotted as the average 2 or more replicates, and pIC50 values were estimated using GraphPad Prism.
(§3) Cell-based activity of NHE3 Activity under ‘Prompt’ Conditions. This assay was performed as described in Example 1 (supra).

[1] = test system: absorption of sodium from the intestinal lumen; assay: Fecal form score (FFS) 16 h after oral dose in rats; format: in vivo, rat; conditions: oral gavage, 16 h post-dose, scale 1-5
Experimental: (§4) Inhibition of intestinal sodium and phosphate absorption. Urinary sodium concentration and fecal form were measured to assess the ability of selected example compounds to inhibit the absorption of sodium from the intestinal lumen. Eight-week old Sprague-Dawley rats were purchased from Charles River Laboratories (Hollister, CA), were housed 2 per cage, and acclimated for at least 3 days before study initiation. Animals were fed Harlan Teklad Global 2018 rodent chow (Indianapolis, IN) and water ad libitum throughout the study and maintained in a standard light/dark cycle of 6 AM to 6 PM. On the day of the study, between 4 PM and 5 PM, a group of rats (n=6) were dosed via oral gavage with test compound, or a pharmaceutically acceptable salt thereof, or vehicle (water) at a volume of 10 mL/kg.
(§5) After dose administration animals were placed in individual metabolic cages where they were also fed the same chow in meal form and watered ad libitum. At 16 h post-dose, the urine samples were collected and fecal form was assessed by two independent observations. Fecal forms were scored according to a common scale associated with increasing fecal water to the wettest observation in the cage's collection funnel (1, normal pellet; 2, pellet adhering to sides of collection funnel due to moisture; 3, loss of normal pellet shape; 4, complete loss of shape with a blotting pattern; 5, liquid fecal streams evident). A rat's fecal form score (FFS) was determined by averaging both observational scores for all rats within a group (n=6). The vehicle group average was 1.

[2] = test system: phosphorus and calcium levels in the urine of rats; assay: Urinary excretion of phosphate and calcium in rats (16 h overnight urine); format: in vivo, rat; conditions: rats, oral gavage, 16 h post-dose
Rat NHE3 = biological target: T2, Rat NHE3 (Rattus norvegicus, UniProt P26433); assay: Cell-based NHE3 activity under prompt conditions (OK cells, BCECF pH recovery), rat NHE3; conditions: for IC50 / Prompt Rat NHE3 pIC50: prompt conditions; for IC50: read-out: Prompt Rat NHE3 pIC50 (converted)
T2 construct: expressed in transfected cells; host or cells: Opossum kidney (OK) cells (ATCC), electroporation
Experimental: as §1, §2, §3

[3] = test system: absorption of sodium from the intestinal lumen; assay: Inhibition of intestinal sodium absorption: urinary sodium (uNa) 16 h after single oral dose in rats; format: in vivo, rat; conditions: for Urine Na % of control: oral gavage, 16 h post-dose
Experimental: as §4, §5
For urine samples, the volumes were determined gravimetrically and centrifuged at 3,600×g. The supernatants were diluted 100-fold in deionized Milli-Q water then filtered through a 0.2 μm GHP Pall AcroPrep filter plate (Pall Life Sciences, Ann Arbor, MI) prior to analysis by ion chromatography. Ten microliters of each filtered extract was injected onto a Dionex ICS-3000 ion chromatograph system (Dionex, Sunnyvale, CA). Cations were separated by an isocratic method using 25 mM methanesulfonic acid as the eluent on an IonPac CS12A 2 mm i.d.×250 mm, 8 μm particle size cation exchange column (Dionex). Sodium was quantified using standards prepared from a cation standard mix containing Li^+, Na^+, NH4^+, K^+, Mg^2+, and Ca^2+ (Dionex). The mean mass of sodium urinated for every group in the 16 h period was determined with the vehicle group usually urinating approximately 21 mg sodium. The urine Na (uNa) for rats in the test groups were expressed as a percentage of the vehicle mean and the means were compared to that of the vehicle group by utilizing a one-way analysis of variance coupled with a Dunnett's post hoc test.
Further experiments were performed to test the compounds under the persistent and prompt conditions described above, and to test their effects on urinary excretion of sodium in rats. The latter was performed by orally dosing the compounds in rats (single dose) and measuring urinary Na excretion (as a % of vehicle). The results are indicated as percentage of urinary sodium (UNa %); low values indicate relatively active compounds.

[4] = prompt conditions, read-out: Prompt Human NHE3 pIC50 (converted)

T2 sequence (P26433 29-831): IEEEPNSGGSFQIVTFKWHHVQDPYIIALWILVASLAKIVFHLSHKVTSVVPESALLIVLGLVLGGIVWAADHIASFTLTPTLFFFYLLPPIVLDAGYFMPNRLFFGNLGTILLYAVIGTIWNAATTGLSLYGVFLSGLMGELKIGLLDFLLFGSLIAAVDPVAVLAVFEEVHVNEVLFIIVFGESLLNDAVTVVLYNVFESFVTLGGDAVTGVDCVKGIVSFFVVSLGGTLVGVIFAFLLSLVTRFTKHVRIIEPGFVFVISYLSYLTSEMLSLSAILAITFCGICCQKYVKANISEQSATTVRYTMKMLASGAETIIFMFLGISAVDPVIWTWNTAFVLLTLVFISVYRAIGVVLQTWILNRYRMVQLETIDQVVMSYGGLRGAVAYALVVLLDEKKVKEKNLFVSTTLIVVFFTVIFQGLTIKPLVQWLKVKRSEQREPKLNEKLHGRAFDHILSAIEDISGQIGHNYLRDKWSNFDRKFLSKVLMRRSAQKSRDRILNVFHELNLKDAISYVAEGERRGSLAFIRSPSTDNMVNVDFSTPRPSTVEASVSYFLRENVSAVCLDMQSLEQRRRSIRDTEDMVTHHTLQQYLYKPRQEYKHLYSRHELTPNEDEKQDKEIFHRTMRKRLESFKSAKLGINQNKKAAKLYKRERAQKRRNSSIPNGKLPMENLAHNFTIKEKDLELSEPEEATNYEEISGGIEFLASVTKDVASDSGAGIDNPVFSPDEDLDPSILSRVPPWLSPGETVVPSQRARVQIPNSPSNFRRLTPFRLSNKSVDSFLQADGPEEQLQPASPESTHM

Row | Compound | IC50 (Human NHE3; [4]) | IC50 (Rat NHE3) | Prompt Human NHE3 pIC50 (Human NHE3; prompt conditions) | Prompt Rat NHE3 pIC50 (Rat NHE3) | Fecal Form Score average ([1]; dose 10 mg/kg) | Urine P % of control ([2]; dose 10 mg/kg) | Urine Na % of control ([3]; dose 10 mg/kg) | other results
1 | NS(=O)(=O)c1ccc(O[C@H]2c3ccccc3C[C@@H]2N2CCCCC2)cc1 (racemic) [compound 38] | 2.51 µM | 3.16 µM | – | – | 1 | 120% | 101% | –
2 | O=C(NCCCCNC(=O)NCCOCCOCCNS(=O)(=O)c1ccc(O[C@H]2c3ccccc3C[C@@H]2N2CCCCC2)cc1)NCCOCCOCCNS(=O)(=O)c1ccc(O[C@H]2c3ccccc3C[C@@H]2N2CCCCC2)cc1 (racemic) [compound 47] | 0.0158 µM | 0.0501 µM | – | – | 1 | 51% | 73% | –
3 | O=C(O)CN(CCN(CC(=O)O)CC(=O)NCCOCCOCCNS(=O)(=O)c1ccc(O[C@H]2c3ccccc3C[C@@H]2N2CCCCC2)cc1)CC(=O)NCCOCCOCCNS(=O)(=O)c1ccc(O[C@H]2c3ccccc3C[C@@H]2N2CCCCC2)cc1 (racemic) [compound 48] | 0.0794 µM | 0.0282 µM | – | – | 1 | 55% | 68% | –
4 | O=C(NCCCCNC(=O)NCCOCCOCCOCCNS(=O)(=O)c1ccc(O[C@H]2c3ccccc3C[C@@H]2N2CCCCC2)cc1)NCCOCCOCCOCCNS(=O)(=O)c1ccc(O[C@H]2c3ccccc3C[C@@H]2N2CCCCC2)cc1 (racemic) [compound 51] | – | – | 7.90 | 7.40 | 1 | 52% | 79% | –
5 | CN1Cc2c(Cl)cc(Cl)cc2C(c2cccc(NC(=O)[C@H](O)[C@@H](O)[C@H](O)[C@H](O)CO)c2)C1 (stereo in doubt) [compound 3] | – | 0.0398 µM | 7.60 | – | – | – | – | Fecal Form Score average ([1]; dose 1 mg/kg): 1; Urine P % of control ([2]; dose 1 mg/kg): 57%; Urine Na % of control ([3]; dose 1 mg/kg): 41%
6 | CN1Cc2c(Cl)cc(Cl)cc2[C@H](c2cccc(NC(=O)[C@H](O)[C@@H](O)[C@H](O)[C@H](O)CO)c2)C1 [Cpd 001] | – | – | – | – | – | – | – | IC50 (Human NHE3; Table E5, 001 free base, 002-005 dihydrochloride salt, read-out: Human NHE3 pIC50 Prompt (converted)): 0.0398 µM; Rat NHE3 pIC50 Prompt (Rat NHE3; Table E5, 001 free base, 002-005 dihydrochloride salt): 7.6; UNa (%) ([3]; urinary Na excretion as % of vehicle, single oral dose 1 mg/kg): 41 @ 1 mg/kg %
7 | CN1Cc2c(Cl)cc(Cl)cc2[C@H](c2cccc(S(=O)(=O)NCCOCCOCCOCCNC(=O)[C@@H](O)[C@H](O)C(=O)NCCOCCOCCOCCNS(=O)(=O)c3cccc([C@@H]4CN(C)Cc5c(Cl)cc(Cl)cc54)c3)c2)C1 [compound 6] | – | – | 8.30 | – | – | – | – | Fecal Form Score average ([1]; dose 1 mg/kg): 2; Urine P % of control ([2]; dose 1 mg/kg): 46%; Urine Na % of control ([3]; dose 1 mg/kg): 21%

Continued, in another order:

Row | IC50 (Human NHE3; [4]) | IC50 (Rat NHE3) | Prompt Human NHE3 pIC50 (Human NHE3; prompt conditions) | Prompt Rat NHE3 pIC50 (Rat NHE3) | Compound | Fecal Form Score average ([1]; dose 10 mg/kg) | Urine P % of control ([2]; dose 10 mg/kg) | Urine Na % of control ([3]; dose 10 mg/kg) | other results
8 | 0.0126 µM | 0.02 µM | – | – | O=C(NCCOCCOCCOCCNS(=O)(=O)c1ccc(OC2c3ccccc3CC2N2CCCCC2)cc1)C(O)C(O)C(=O)NCCOCCOCCOCCNS(=O)(=O)c1ccc(OC2c3ccccc3CC2N2CCCCC2)cc1 (mixture of isomers) [compound 55] | 1 | 45% | 85% | –
9 | – | – | 7.50 | 7.30 | O=C(CCOCCOCCOCCOCCOCCC(=O)NCCOCCOCCNS(=O)(=O)c1ccc(OC2c3ccccc3CC2N2CCCCC2)cc1)NCCOCCOCCNS(=O)(=O)c1ccc(OC2c3ccccc3CC2N2CCCCC2)cc1 (racemic) [compound 54] | 1 | 72% | 75% | –
10 | – | – | 7.30 | 6.90 | CN1Cc2c(Cl)cc(Cl)cc2C(c2cccc(S(=O)(=O)NCCOCCOCCOCCNC(=O)NCCN(CCNC(=O)NCCOCCOCCOCCNS(=O)(=O)c3cccc([C@@H]4CN(C)Cc5c(Cl)cc(Cl)cc54)c3)CCNC(=O)NCCOCCOCCOCCNS(=O)(=O)c3cccc([C@@H]4CN(C)Cc5c(Cl)cc(Cl)cc54)c3)c2)C1 (stereo in doubt) [compound 59] | 2 | 45% | 18% | –
11 | – | – | 7.70 | – | O=C(NCCCCNC(=O)NCCOCCOCCNS(=O)(=O)c1ccc(O[C@H]2c3cc(Cl)cc(F)c3C[C@@H]2N2CCCCC2)cc1)NCCOCCOCCNS(=O)(=O)c1ccc(O[C@H]2c3cc(Cl)cc(F)c3C[C@@H]2N2CCCCC2)cc1 [compound 160] | 1 | 77% | 108% | –
12 | – | – | 8.20 | – | CN(C)[C@H]1Cc2c(Cl)cc(Cl)cc2[C@@H]1Oc1ccc(S(=O)(=O)NCCOCCOCCNC(=O)NCCCCNC(=O)NCCOCCOCCN(C)S(=O)(=O)c2ccc(O[C@H]3c4cc(Cl)cc(Cl)c4C[C@@H]3N(C)C)cc2)cc1 [compound 171] | 1 | 49% | 49% | –
13 | – | – | 8.10 | 7.60 | CC(O)C(CCC(=O)NCCOCCOCCNS(=O)(=O)c1cccc([C@@H]2CN(C)Cc3c(Cl)cc(Cl)cc32)c1)(CCC(=O)NCCOCCOCCNS(=O)(=O)c1cccc([C@@H]2CN(C)Cc3c(Cl)cc(Cl)cc32)c1)CCC(=O)NCCOCCOCCNS(=O)(=O)c1cccc([C@@H]2CN(C)Cc3c(Cl)cc(Cl)cc32)c1 (stereo partly drawn) [compound 173] | – | – | – | –
